Experimental findings from patent US5264430A, “2-spirocyclopropyl cephalosporin sulfone derivatives” (SynPhar Laboratories, Inc., priority 1991, dated 1993) are described below.

As usually defined, the pIC50 is the negative decadic logarithm of the IC50, by convention in mol/L. Lower therefore signals a large IC50. One may read the IC50 as the midpoint of a concentration-inhibition curve.

pIC50: −log10 of the molar value. Read-outs that look alike come from different tables or passages of the source.

One assay has as its target T1, cathepsin C (Bos taurus, UniProt Q3ZCJ8).
T1 construct: Purified cathepsin C from bovine spleen; from tissue; host or cells: bovine spleen
Put plainly: Selectivity against various proteases: cathepsin C (CTC). The format is biochemical, bovine. Particulars: for IC50: cathepsin C, bovine spleen, pH 5.4, 22° C., 10 minute preincubation, read-out: CTC IC50 (converted).

The target of a further assay is T2, aminopeptidase M (Sus scrofa, UniProt P15145).
T2 construct: Purified aminopeptidase M from porcine kidney; from tissue; host or cells: porcine kidney
T2 sequence (P15145 1-963): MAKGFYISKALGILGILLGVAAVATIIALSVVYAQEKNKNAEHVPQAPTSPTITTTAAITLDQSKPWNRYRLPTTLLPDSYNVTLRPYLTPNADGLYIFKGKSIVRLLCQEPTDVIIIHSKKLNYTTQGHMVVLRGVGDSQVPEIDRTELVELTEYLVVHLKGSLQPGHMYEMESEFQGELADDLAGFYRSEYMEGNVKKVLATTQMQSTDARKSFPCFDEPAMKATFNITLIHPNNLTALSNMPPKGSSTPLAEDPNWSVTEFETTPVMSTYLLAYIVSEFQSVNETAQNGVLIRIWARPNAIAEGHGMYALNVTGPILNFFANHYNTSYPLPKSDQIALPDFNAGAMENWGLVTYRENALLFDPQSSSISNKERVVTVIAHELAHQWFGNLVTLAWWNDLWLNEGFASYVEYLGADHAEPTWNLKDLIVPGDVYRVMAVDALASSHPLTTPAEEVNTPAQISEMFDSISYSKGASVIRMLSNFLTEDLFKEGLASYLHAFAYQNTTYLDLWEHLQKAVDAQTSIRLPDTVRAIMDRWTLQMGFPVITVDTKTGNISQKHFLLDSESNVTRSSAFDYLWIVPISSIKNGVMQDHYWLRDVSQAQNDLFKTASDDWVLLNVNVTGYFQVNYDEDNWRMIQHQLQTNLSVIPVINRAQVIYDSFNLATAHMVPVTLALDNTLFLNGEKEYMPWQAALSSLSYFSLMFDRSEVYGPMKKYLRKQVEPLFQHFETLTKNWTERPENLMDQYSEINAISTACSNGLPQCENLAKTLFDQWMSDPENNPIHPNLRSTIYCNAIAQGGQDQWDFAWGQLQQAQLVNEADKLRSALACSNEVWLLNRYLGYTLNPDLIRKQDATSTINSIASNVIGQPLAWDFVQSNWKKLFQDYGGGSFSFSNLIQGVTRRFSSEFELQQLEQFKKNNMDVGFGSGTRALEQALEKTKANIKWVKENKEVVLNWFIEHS
Put plainly: Selectivity against various proteases: aminopeptidase M (APM). The format is biochemical, porcine. Particulars: for IC50: aminopeptidase M, porcine kidney, pH 7.5, 22° C., 10 minute preincubation, read-out: APM IC50 (converted).

The next assay deals with T3, thrombin (Homo sapiens, UniProt P00734).
T3 construct: Purified thrombin from human plasma; from tissue; host or cells: human plasma
Put plainly: Selectivity against various proteases: thrombin (THR). The format is biochemical. Particulars: human plasma, pH 8.6, 22° C., 10 minute preincubation. As for the experimental part:
TRY = trypsin, THR = thrombin, PLM = plasmin, CTC = cathepsin C, APM =
Enzyme: Purified thrombin from human plasma
Substrate: Tosyl-glycyl-L-prolyl-L-arginine-p-NA acetate
50 mM Tricine-NaOH buffer (PH 8.6)
(§1) Except for Cathepsin D, the enzyme activities were determined by monitoring the increase in absorbance at 410 nm caused by the hydrolysis of chromogenic substrates. The activity of Cathepsin D was determined by monitoring the absorbance of 5% trichloroacetic acid-soluble material at 280 nm.
(§2) Inhibition of enzymes by the compounds described were determined after a 10 minute preincubation with enzymes in reaction mixtures minus substrate. Reactions were initiated by the addition of substrates. The concentration used for assays were porcine pancreatic elastase at 240 nM and human Cathepsin G at 50 nM. Cathepsin D was used at the concentration that produced approximately 0.15 O.D. increase per 20 min at 280 nm under the standard conditions. All other proteases were assayed at the concentrations that produced approximately 0.1 O.D. change per minute at 410 nm under the standard conditions.

For another assay, the target named is T4, cathepsin D (Bos taurus, UniProt P80209).
T4 construct: Purified cathepsin D from bovine spleen; from tissue; host or cells: bovine spleen
T4 sequence (P80209 45-390): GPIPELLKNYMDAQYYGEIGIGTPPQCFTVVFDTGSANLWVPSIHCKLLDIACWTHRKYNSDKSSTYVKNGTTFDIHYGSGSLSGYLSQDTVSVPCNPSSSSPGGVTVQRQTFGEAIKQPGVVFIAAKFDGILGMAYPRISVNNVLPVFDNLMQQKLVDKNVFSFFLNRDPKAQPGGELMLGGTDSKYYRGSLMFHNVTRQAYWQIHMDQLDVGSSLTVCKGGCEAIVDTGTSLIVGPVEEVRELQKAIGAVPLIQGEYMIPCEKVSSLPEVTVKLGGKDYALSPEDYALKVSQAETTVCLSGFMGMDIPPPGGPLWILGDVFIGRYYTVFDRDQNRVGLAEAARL
Put plainly: Selectivity against various proteases: cathepsin D (CTD). The format is biochemical, bovine. Particulars: for IC50: cathepsin D, bovine spleen, pH 3.2, 30° C., 10 minute preincubation, read-out: CTD IC50 (converted).

In a further assay the target is T5, trypsin (Bos taurus, UniProt P00760).
T5 construct: Purified trypsin from bovine pancreas; from tissue; host or cells: bovine pancreas
T5 sequence (P00760 24-246): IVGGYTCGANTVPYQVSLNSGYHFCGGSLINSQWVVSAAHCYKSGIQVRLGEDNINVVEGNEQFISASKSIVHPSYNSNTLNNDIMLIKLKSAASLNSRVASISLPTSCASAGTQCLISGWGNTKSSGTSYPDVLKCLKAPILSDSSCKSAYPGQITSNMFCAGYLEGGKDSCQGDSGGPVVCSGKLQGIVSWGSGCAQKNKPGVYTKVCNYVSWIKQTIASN
As to the kind of experiment: Selectivity against various proteases: trypsin (TRY). The format is biochemical, bovine. Particulars: for IC50: read-out: TRY IC50 (converted).

In assay [1] the target is T6, porcine pancreatic elastase (Sus scrofa, UniProt P00772).
T6 construct: Purified elastase from porcine pancreas; from tissue; host or cells: porcine pancreas
T6 sequence (P00772 27-266): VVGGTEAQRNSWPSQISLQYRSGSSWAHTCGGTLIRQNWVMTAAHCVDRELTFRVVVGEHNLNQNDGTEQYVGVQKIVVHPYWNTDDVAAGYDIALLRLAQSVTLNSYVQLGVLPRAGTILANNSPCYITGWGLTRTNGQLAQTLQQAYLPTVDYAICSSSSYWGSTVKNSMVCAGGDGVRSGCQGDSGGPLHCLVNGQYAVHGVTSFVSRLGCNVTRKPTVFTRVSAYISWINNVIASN
Put plainly: Selectivity against various proteases: porcine pancreatic elastase (PPE). The format is biochemical. As for the experimental part:
Porcine Pancreatic Elastase (PPE)
Enzyme: Purified elastase from porcine pancreas
Substrate: MeO-succinyl-L-alanyl-L-alanyl-L-prolyl-L-valine-pNA
50 mM Tris[Tris(hydroxymethyl) aminomethane]. HCl buffer (pH 8.9)
as §1
Inhibition of enzymes by the compounds described were determined after a 10 minute preincubation with enzymes in reaction mixtures minus substrate. Reactions were initiated by the addition of substrates. […] Cathepsin D was used at the concentration that produced approximately 0.15 O.D. increase per 20 min at 280 nm under the standard conditions. All other proteases were assayed at the concentrations that produced approximately 0.1 O.D. change per minute at 410 nm under the standard conditions.

The next assay deals with T7, cathepsin G (Homo sapiens, UniProt P08311).
T7 construct: Purified Cathepsin G from human white blood cells; from tissue; host or cells: human white blood cells
T7 sequence (P08311 21-244 limits assumed): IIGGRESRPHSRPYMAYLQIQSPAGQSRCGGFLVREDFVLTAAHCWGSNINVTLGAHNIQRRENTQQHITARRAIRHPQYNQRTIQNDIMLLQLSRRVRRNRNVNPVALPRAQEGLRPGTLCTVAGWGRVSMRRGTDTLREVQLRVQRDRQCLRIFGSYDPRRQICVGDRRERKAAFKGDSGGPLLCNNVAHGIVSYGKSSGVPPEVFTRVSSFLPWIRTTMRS
Put plainly: Selectivity against various proteases: cathepsin G (CTG). Particulars: cathepsin G 50 nM, human white blood cells, pH 7.5, 30° C., 10 minute preincubation. In kind it is biochemical. As for the experimental part: as §2, with “Reaction mixture: […] 500 mM NaCl […] 2.0 mM Substrate Except for Cathepsin D, the enzyme activities were determined by monitoring the increase in absorbance at 410 nm caused by the hydrolysis of chromogenic substrates. The activity of Cathepsin D was determined by monitoring the absorbance of 5% trichloroacetic acid-soluble material at 280 nm. Inhibition” for “Inhibition”

[2] abbreviates: trypsin, bovine pancreas, pH 8.8, 22° C., 10 minute preincubation.

T1 sequence (Q3ZCJ8 231-394 limits assumed): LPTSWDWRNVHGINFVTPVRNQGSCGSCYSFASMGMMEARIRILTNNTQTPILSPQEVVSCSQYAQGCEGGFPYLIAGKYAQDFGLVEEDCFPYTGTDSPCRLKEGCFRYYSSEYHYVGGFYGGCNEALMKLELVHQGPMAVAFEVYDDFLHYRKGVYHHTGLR
T1 sequence (Q3ZCJ8 395-463 limits assumed): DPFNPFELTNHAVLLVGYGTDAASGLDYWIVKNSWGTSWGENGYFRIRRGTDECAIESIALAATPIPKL
T1 sequence (Q3ZCJ8 25-134 limits assumed): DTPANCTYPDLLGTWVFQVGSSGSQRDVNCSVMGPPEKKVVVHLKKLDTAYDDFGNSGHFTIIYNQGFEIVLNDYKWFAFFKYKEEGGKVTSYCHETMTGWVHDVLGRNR
Description for aminopeptidase M: Enzyme: Purified aminopeptidase M from porcine kidney
50 mM Tricine buffer (pH 7.5)
Description for cathepsin C: Enzyme: Purified cathepsin C from bovine spleen
Substrate: Glycyl-L-phenylalanine-pNA
50 mM Citrate buffer (pH 5.4)
Inhibition of enzymes by the compounds described were determined after a 10 minute preincubation with enzymes in reaction mixtures minus substrate. Reactions were initiated by the addition of substrates. […] All other proteases were assayed at the concentrations that produced approximately 0.1 O.D. change per minute at 410 nm under the standard conditions.
Description for cathepsin D: Enzyme: Purified cathepsin D from bovine spleen
Substrate: Hemoglobin (bovine)
250 mM Glycine buffer (pH 3.2)
Description for trypsin: Enzyme: Purified trypsin from bovine pancreas
Substrate: Bz-L-arginine-p-NA
50 mM Tricine[N-Tris(hydroxymethyl)methylglycine]-NaOH buffer (pH 8.8) 150 mM NaCl

`CC1=C(C(=O)OC(c2ccccc2)c2ccccc2)N2C(=O)[C@H](Br)[C@H]2S(=O)(=O)C12CC2(c1ccc(F)cc1)c1ccc(F)cc1` (single isomer, unassigned) [Example 13, Benzhydryl 7α-bromo-2-spiro[2',2'-(4',4'-difluoro)diphenyl] cyclopropyl-3-methyl-3-cephem-4-carboxylate-1,1-dioxide]: the pIC50 at cathepsin C, on aminopeptidase M, against thrombin and at trypsin was 4.40 each time. Also, on cathepsin D, the half-inhibitory concentration (IC50) is 50 µM.
On to `CO[C@H]1C(=O)N2C(C(=O)OCC(Cl)(Cl)Cl)=C(C)C3(CC3(c3ccccc3)c3ccccc3)S(=O)(=O)[C@H]12` (stereo partly drawn) [Example 8, 2,2,2-Trichloroethyl-7α-methoxy-2-spiro(2',2'-diphenyl) cyclo-propyl-3-methyl-3-cephem-4-carboxylate-1,1-dioxide], for which the negative-log IC50 (pIC50) against cathepsin C, at aminopeptidase M, against thrombin and on cathepsin D was 5.00 each time.
Turning to `CC1=C(C(=O)OC(c2ccccc2)c2ccccc2)N2C(=O)[C@H](Br)[C@H]2S(=O)(=O)C12CC2(c1ccc(Cl)cc1)c1ccc(Cl)cc1` (single isomer, unassigned) [Example 12, Benzhydryl 7α-bromo-2-spiro [2',2'-(4',4'-dichloro)diphenyl]cyclopropyl-3-methyl-3-cephem-4-carboxylate-1,1-dioxide], the pIC50 against cathepsin C, against aminopeptidase M and at thrombin was 4.26 throughout. Further, on cathepsin D, the IC50 is 46.2 µM.
As for `CCOC(=O)C1CC12C(C)=C(C(=O)OC(c1ccccc1)c1ccccc1)N1C(=O)[C@H](Br)[C@H]1S2(=O)=O` (stereo partly drawn) [Example 13 (1), Benzhydryl 7α-bromo-2-spiro(2'-ethoxycarbonyl)cyclo propyl-3-methyl-3-cephem-4-carboxylate-1,1-dioxide], the negative-log IC50 (pIC50) against cathepsin C, on aminopeptidase M and at thrombin was 4.40 each time.
`CO[C@H]1C(=O)N2C(C(=O)N3CCCCC3)=C(C)C3(CC3(c3ccccc3)c3ccccc3)S(=O)(=O)[C@H]12` (stereo partly drawn) [Example 11, 7α-Methoxy-2-spiro (2',2'-diphenyl)cyclopropyl-3-methyl-3-cephem-4-piperidine carboxamide-1,1-dioxide]: the IC50 at cathepsin C, at aminopeptidase M, on cathepsin D and at trypsin (setting [2]) was 10 µM throughout. For the same compound, the values for the negative-log IC50 (pIC50) (in assay [1]; against thrombin) were 7.50 and 4.40, respectively.
`CO[C@H]1C(=O)N2C(C(=O)OC(c3ccccc3)c3ccccc3)=C(C)C3(CC3(c3ccccc3)c3ccccc3)S(=O)(=O)[C@H]12` (stereo partly drawn) [Example 9, Benzhydryl 7α-methoxy-2-spiro (2',2'-diphenyl) cyclopropyl-3-methyl-3-cephem-4-carboxylate-1,1-dioxide]: the negative logarithm of the IC50 (pIC50) on cathepsin C, against aminopeptidase M, at thrombin, against cathepsin D and at trypsin was 5.00 throughout. The half-inhibitory concentration (IC50) in assay [1] (porcine pancreatic elastase 240 nM, pH 8.9, 30° C., 10 minute preincubation, read-out: PPE IC50 (converted)) was 0.0578 µM.
On to `CC1=C(C(=O)N2CCCC2)N2C(=O)[C@H](Br)[C@H]2S(=O)(=O)C12CC2(c1ccccc1)c1ccccc1` (stereo partly drawn) [Example 6, 7α Bromo-2-spiro(2',2'-diphenyl)cyclopropyl-3-methyl-3-cephem-4-pyrrolidine carboxamide-1,1-dioxide], for which the 50% inhibitory concentration (IC50) on cathepsin C, on aminopeptidase M and on cathepsin D was 9.77 µM each time. The negative-log IC50 (pIC50) on thrombin and on trypsin was 4.41 in each case.
As to `CC1=C(C(=O)OC(c2ccccc2)c2ccccc2)N2C(=O)[C@H](Cl)[C@H]2S(=O)(=O)C12CC2(c1ccccc1)c1ccccc1` (single isomer, unassigned) [Example 1, Benzhydryl 7α-chloro-2-spiro(2',2'-diphenyl) cyclopropyl-3-methyl-3-cephem-4-carboxylate-1,1-dioxide], the IC50 on cathepsin C was 60 µM; on aminopeptidase M, 60 µM; on cathepsin D, 17.2 µM; on trypsin (setting [2]), 60 µM. Also, the pIC50 at cathepsin G is 4.70; at thrombin, 4.40.
`CC1=C(C(=O)OC(c2ccccc2)c2ccccc2)N2C(=O)[C@H](Br)[C@H]2S(=O)(=O)C12CC2(C)c1ccccc1` (stereo partly drawn) [Example 13 (2), Benzhydryl 7α-bromo-2-spiro(2'-phenyl-2'-methyl) cyclopropyl-3-methyl-3-cephem-4-carboxylate-1,1-dioxide]: the pIC50 against cathepsin C, on aminopeptidase M and on thrombin was 4.40 in each case. The IC50 at cathepsin D was 50 µM. The “TRY IC50” value on trypsin (setting [2]) turned out to be 0.089 µg/mL.
